Several values for one entry are separate records, joined by “and”; a condition that tells them apart may be missing. Identical values can stand only once. Like-named read-outs stand apart in the source and are kept apart here.
Tests used:
[1] = Salt formation experiments / physical characteristics of solid forms; type: physicochemical; settings: free base prepared from NVX-144.HCl; salt formation with acids
Procedure: Thus, a series of experiments was conducted to assess the preparation of NVX-144 salts of acids other than hydrochloric acid as possible novel compounds better suited to pharmaceutical preparations. […] As expected, NVX-144 base readily formed salts with strong organic acids.
Although oxalic acid co-crystals are rare, Trask et al. have reported a co-crystal of caffeine with oxalic acid (see Trask et al., “Pharmaceutical Cocrystallization: Engineering a Remedy for Caffeine Hydration,” Crystal Growth & Design, 5, 1013-21 (2005)).
Thus NVX-144 would not be expected to form a salt with oxalic acid, a relatively strong dicarboxylic acid.

[2] = Pharmacokinetic experiments in rats (IV, oral suspension, oral solution); type: in vivo; settings: rat; for concentration at 0.5 h / concentration at 1 h / concentration at 4 h / concentration at 8 h: oral; for bioavailability: adjusted for dose
Procedure: The oral suspension formulation was prepared by suspending the test article in 5% PEG-200/95% of a 0.5% solution of methylcellulose. The concentration of the test article was such that a dosing volume of 10 mL/kg delivered the intended dose level. The oral solution formulations of NVX-144 and NVX-412 were prepared by dissolving the test article in 10% by volume dimethyl acetamide, followed by 60% by volume PEG-400, and then adding slowly a solution of 30% Captisol® in 50 mM lactic acid to provide the remaining 30% of volume. The concentration of the test article was such that a dosing volume of 10 mL/kg delivered the intended dose level. The IV formulation of NVX-412 was prepared by dissolving the test article in 10% by volume dimethyl acetamide, followed by 10% by volume PEG-400, and then adding slowly a solution of 10% Captisol® in 50 mM lactic acid to provide the remaining 80% of volume. The concentration of the test articles was such that a dosing volume of 2.5 mL/kg delivered the intended dose level. The doses administered were based on the body weight of each animal taken shortly before dosing. The formulations were used immediately after preparation.
A total of 15 rats were assigned to the study. Five groups of three male rats each comprised the study. Each group was treated once by oral gavage or intravenous injection via the tail vein as specified in Table 3 below.
The animals were fasted overnight prior to dosing and the feed returned approximately 2 hours post-dosing. The dose for each animal was based on the most recent body weight. Oral doses were administered by gavage. Animals received 10 mL/kg per single oral dose. Intravenous doses were administered by tail vein injection. The dose for each animal was based on the most recent body weight. Animals were dosed at 2.5 mL/kg per single intravenous dose.
Blood was collected from the animals in Groups 1 through 5 for pharmacokinetic analysis. Approximately 0.3 mL of blood was collected in potassium EDTA tubes via the orbital plexus at four time points (30 minutes, 1 hour, 4 hours, and 8 hours post-dose) from each rat treated by the oral route, and the blood samples were processed to prepare plasma. Blood was collected at four time points (5 minutes, 30 minutes, 1 hour, and 2 hours post-dose) from each rat treated by the intravenous route, and the blood samples were processed to prepare plasma. Animals were terminated (without necropsy) following their final sample collection.
The whole blood samples were centrifuged (˜1500×g) for a minimum of 10 minutes in a refrigerated centrifuge (set at ˜5° C.). Plasma was prepared and transferred within 30 minutes of blood collection/centrifugation to appropriately labeled tubes. The tubes were then frozen and stored in the dark at ≦−70° C. until analysis. The plasma samples were analyzed by LC-MS/MS to determine the plasma concentrations of NVX-144 and NVX-412. Pharmacokinetic analysis of the plasma concentration data was conducted using non-compartmental analysis with WinNonlin Version 4.1.

[3] = male, plasma, po, 20 mg/kg, Group 2, PO-Suspension 20 mg/kg, Mean N=3
[4] = male, plasma, po, 20 mg/kg, Group 2, PO-Suspension 20 mg/kg, individual animals
[5] = male, plasma, po, 20 mg/kg, Group 4, PO-Solution 20 mg/kg, Mean N=3
[6] = male, plasma, po, 20 mg/kg, Group 4, PO-Solution 20 mg/kg, individual animals
[7] = Group 2, PO-Suspension 20 mg/kg, Mean N=3, listed as NVX-144 Free Base
[8] = Group 2, PO-Suspension 20 mg/kg, individual animals, listed as NVX-144 Free Base
[9] = Group 4, PO-Solution 20 mg/kg, Mean N=3, listed as NVX-144 Free base
[10] = Group 4, PO-Solution 20 mg/kg, individual animals, listed as NVX-144 Free base

Q: For O=C(NNc1nc2cc(F)ccc2n2cccc12)c1cnccn1 [NVX-144, N′-(7-fluoropyrrolo[1,2a]quinoxalin-4-yl)pyrazine-2-carbohydrazide, reference compound], which basicity [1] is on record?
A: very weak base

Q: And the concentration at 0.5 h ([2]; male, plasma, 20 mg/kg, Group 2, PO-Suspension 20 mg/kg, 0.5 hr, Mean)?
A: 479 ng/mL

Q: And the concentration at 0.5 h ([2]; male, plasma, 20 mg/kg, Group 2, PO-Suspension 20 mg/kg, 0.5 hr, individual animals)?
A: 436 ng/mL

Q: What about the concentration at 1 h ([2]; male, plasma, 20 mg/kg, Group 2, PO-Suspension 20 mg/kg, 1 hr, Mean) of the same molecule?
A: 427 ng/mL

Q: What about the concentration at 4 h ([2]; male, plasma, 20 mg/kg, Group 2, PO-Suspension 20 mg/kg, 4 hr, Mean) of the same molecule?
A: 227 ng/mL

Q: And the concentration at 4 h ([2]; male, plasma, 20 mg/kg, Group 2, PO-Suspension 20 mg/kg, 4 hr, individual animals)?
A: 270 ng/mL

Q: What about the concentration at 8 h ([2]; male, plasma, 20 mg/kg, Group 2, PO-Suspension 20 mg/kg, 8 hr, Mean) of the same molecule?
A: 10.9 ng/mL

Q: And the concentration at 0.5 h ([2]; male, plasma, 20 mg/kg, Group 4, PO-Solution 20 mg/kg, 0.5 hr, Mean)?
A: 709 ng/mL

Q: What about the concentration at 0.5 h ([2]; male, plasma, 20 mg/kg, Group 4, PO-Solution 20 mg/kg, 0.5 hr, individual animals) of the same molecule?
A: 691 ng/mL

Q: What about the concentration at 1 h ([2]; male, plasma, 20 mg/kg, Group 4, PO-Solution 20 mg/kg, 1 hr, Mean) of the same molecule?
A: 643 ng/mL

Q: And the concentration at 1 h ([2]; male, plasma, 20 mg/kg, Group 4, PO-Solution 20 mg/kg, 1 hr, individual animals)?
A: 570 ng/mL

Q: What about the concentration at 4 h ([2]; male, plasma, 20 mg/kg, Group 4, PO-Solution 20 mg/kg, 4 hr, Mean) of the same molecule?
A: 225 ng/mL

Q: What about the concentration at 4 h ([2]; male, plasma, 20 mg/kg, Group 4, PO-Solution 20 mg/kg, 4 hr, individual animals) of the same molecule?
A: 289 ng/mL

Q: What about the concentration at 8 h ([2]; male, plasma, 20 mg/kg, Group 4, PO-Solution 20 mg/kg, 8 hr, Mean) of the same molecule?
A: 31.5 ng/mL

Q: What about the AUC [2, 3] of the same molecule?
A: 1800 ng·h/mL

Q: And the AUC(0-inf) [2, 3]?
A: 1830 ng·h/mL

Q: And the Cmax ([2]; male, plasma, po, 20 mg/kg, Group 2, PO-Suspension 20 mg/kg, Mean N=3, read-out: Cmax)?
A: 487 ng/mL

Q: What about the half-life ([2]; male, plasma, po, 20 mg/kg, Group 2, PO-Suspension 20 mg/kg, Mean N=3, read-out: T ½ (converted)) of the same molecule?
A: 1.4 h

Q: What about the Tmax ([2]; male, plasma, po, 20 mg/kg, Group 2, PO-Suspension 20 mg/kg, Mean N=3, read-out: Tmax) of the same molecule?
A: 0.67 h

Q: And the bioavailability ([2]; male, plasma, po, 20 mg/kg, Group 2, PO-Suspension 20 mg/kg, Mean N=3, versus mean IV AUCINF, read-out: Bioavailability)?
A: 34.7%

Q: What about the AUC [2, 4] of the same molecule?
A: 1690 ng·h/mL

Q: What about the AUC(0-inf) [2, 4] of the same molecule?
A: 1720 ng·h/mL

Q: And the Cmax ([2]; male, plasma, po, 20 mg/kg, Group 2, PO-Suspension 20 mg/kg, individual animals, read-out: Cmax)?
A: 436 ng/mL

Q: What about the half-life ([2]; male, plasma, po, 20 mg/kg, Group 2, PO-Suspension 20 mg/kg, individual animals, read-out: T ½ (converted)) of the same molecule?
A: 1.66 h

Q: What about the Tmax ([2]; male, plasma, po, 20 mg/kg, Group 2, PO-Suspension 20 mg/kg, individual animals, read-out: Tmax) of the same molecule?
A: 0.5 to 1 h

Q: And the bioavailability ([2]; male, plasma, po, 20 mg/kg, Group 2, PO-Suspension 20 mg/kg, individual animals, versus mean IV AUCINF, read-out: Bioavailability)?
A: 32.8%

Q: And the AUC [2, 5]?
A: 2330 ng·h/mL

Q: And the AUC(0-inf) [2, 5]?
A: 2520 ng·h/mL

Q: What about the Cmax ([2]; male, plasma, po, 20 mg/kg, Group 4, PO-Solution 20 mg/kg, Mean N=3, read-out: Cmax) of the same molecule?
A: 714 ng/mL

Q: What about the half-life ([2]; male, plasma, po, 20 mg/kg, Group 4, PO-Solution 20 mg/kg, Mean N=3, read-out: T ½ (converted)) of the same molecule?
A: 1.6 h

Q: And the Tmax ([2]; male, plasma, po, 20 mg/kg, Group 4, PO-Solution 20 mg/kg, Mean N=3, read-out: Tmax)?
A: 0.67 h

Q: And the bioavailability ([2]; male, plasma, po, 20 mg/kg, Group 4, PO-Solution 20 mg/kg, Mean N=3, versus mean IV AUCINF, read-out: Bioavailability)?
A: 46.1%

Q: What about the AUC [2, 6] of the same molecule?
A: 2500 ng·h/mL

Q: And the AUC(0-inf) [2, 6]?
A: 2760 ng·h/mL

Q: And the Cmax ([2]; male, plasma, po, 20 mg/kg, Group 4, PO-Solution 20 mg/kg, individual animals, read-out: Cmax)?
A: 691 ng/mL

Q: What about the Tmax ([2]; male, plasma, po, 20 mg/kg, Group 4, PO-Solution 20 mg/kg, individual animals, read-out: Tmax) of the same molecule?
A: 0.5 to 1 h

Q: What about the bioavailability ([2]; male, plasma, po, 20 mg/kg, Group 4, PO-Solution 20 mg/kg, individual animals, versus mean IV AUCINF, read-out: Bioavailability) of the same molecule?
A: 52.6%

Q: What about the plasma concentration ([2]; Group 2, PO-Suspension 20 mg/kg, 0.5 hr, individual animals, listed as NVX-144 Free Base) of the same molecule?
A: 428.07 ng/mL and 571.69 ng/mL

Q: And the plasma concentration ([2]; Group 2, PO-Suspension 20 mg/kg, 1 hr, individual animals, listed as NVX-144 Free Base)?
A: 282.56 ng/mL and 401.49 ng/mL and 597.75 ng/mL

Q: What about the plasma concentration ([2]; Group 2, PO-Suspension 20 mg/kg, 4 hr, individual animals, listed as NVX-144 Free Base) of the same molecule?
A: 234.64 ng/mL and 175.82 ng/mL

Q: And the plasma concentration ([2]; Group 2, PO-Suspension 20 mg/kg, 8 hr, individual animals, listed as NVX-144 Free Base)?
A: 14.92 ng/mL and 12.33 ng/mL and 5.37 ng/mL

Q: What about the “AUC % Extrap” value ([2]; Group 2, PO-Suspension 20 mg/kg, Mean N=3) of the same molecule?
A: 1.32%

Q: And the AUCINF [2, 7]?
A: 1826.45 ng·h/mL

Q: And the Cmax [2, 7]?
A: 487.28 ng/mL

Q: What about the “T ½” value [2, 7] of the same molecule?
A: 1.39 h

Q: And the “AUC % Extrap” value [2, 8]?
A: 2.08% and 1.48% and 0.4%

Q: And the AUCINF [2, 8]?
A: 1789.00 ng·h/mL and 1965.88 ng·h/mL

Q: What about the AUCall [2, 8] of the same molecule?
A: 1762.55 ng·h/mL and 1958.03 ng·h/mL

Q: What about the Cmax [2, 8] of the same molecule?
A: 428.07 ng/mL and 597.75 ng/mL

Q: And the “T ½” value [2, 8]?
A: 1.49 h and 1.01 h

Q: What about the Tmax [2, 8] of the same molecule?
A: 0.5 h and 1.0 h

Q: What about the bioavailability ([2]; Group 2, PO-Suspension 20 mg/kg, individual animals, versus mean IV AUCINF, listed as NVX-144 Free Base) of the same molecule?
A: 34.0% and 37.4%

Q: And the plasma concentration ([2]; Group 4, PO-Solution 20 mg/kg, 0.5 hr, individual animals, listed as NVX-144 Free Base)?
A: 610.62 ng/mL and 824.32 ng/mL

Q: What about the plasma concentration ([2]; Group 4, PO-Solution 20 mg/kg, 1 hr, individual animals, listed as NVX-144 Free Base) of the same molecule?
A: 626.73 ng/mL and 731.54 ng/mL

Q: And the plasma concentration ([2]; Group 4, PO-Solution 20 mg/kg, 4 hr, individual animals, listed as NVX-144 Free Base)?
A: 163.62 ng/mL and 221.82 ng/mL

Q: What about the plasma concentration ([2]; Group 4, PO-Solution 20 mg/kg, 8 hr, individual animals, listed as NVX-144 Free Base) of the same molecule?
A: 75.29 ng/mL and 5.57 ng/mL and 13.76 ng/mL

Q: And the “AUC % Extrap” value ([2]; Group 4, PO-Solution 20 mg/kg, Mean N=3)?
A: 3.61%

Q: And the AUCINF [2, 9]?
A: 2426.28 ng·h/mL

Q: And the Cmax [2, 9]?
A: 713.93 ng/mL

Q: And the “T ½” value [2, 9]?
A: 1.56 h

Q: And the “AUC % Extrap” value [2, 10]?
A: 9.41% and 0.41% and 1.00%

Q: And the AUCINF [2, 10]?
A: 1994.04 ng·h/mL and 2521.47 ng·h/mL

Q: And the AUCall [2, 10]?
A: 1985.89 ng·h/mL and 2496.24 ng·h/mL

Q: What about the Cmax [2, 10] of the same molecule?
A: 626.73 ng/mL and 824.32 ng/mL

Q: And the “T ½” value [2, 10]?
A: 2.39 h and 1.01 h and 1.27 h

Q: What about the Tmax [2, 10] of the same molecule?
A: 0.5 h and 1.0 h

Q: What about the bioavailability ([2]; Group 4, PO-Solution 20 mg/kg, individual animals, versus mean IV AUCINF, listed as NVX-144 Free base) of the same molecule?
A: 37.9% and 48.0%

Q: What about the oral absorption ([2]; administered as a solution or suspension) of the same molecule?
A: moderate
